Measured values as given in paper PMC10039885, “Unnatural activities and mechanistic insights of cytochrome P450 PikC gained from site-specific mutagenesis by non-canonical amino acids” (Nature Communications, 2023).

Target: T1, PikC (PikCWT; cytochrome P450 CYP107L1) (Streptomyces venezuelae, UniProt O87605)
T1 construct: pET28a-pikC, expressed in E. coli BL21(DE3), Ni-NTA purified; heme protein
T1 sequence (O87605 1-416): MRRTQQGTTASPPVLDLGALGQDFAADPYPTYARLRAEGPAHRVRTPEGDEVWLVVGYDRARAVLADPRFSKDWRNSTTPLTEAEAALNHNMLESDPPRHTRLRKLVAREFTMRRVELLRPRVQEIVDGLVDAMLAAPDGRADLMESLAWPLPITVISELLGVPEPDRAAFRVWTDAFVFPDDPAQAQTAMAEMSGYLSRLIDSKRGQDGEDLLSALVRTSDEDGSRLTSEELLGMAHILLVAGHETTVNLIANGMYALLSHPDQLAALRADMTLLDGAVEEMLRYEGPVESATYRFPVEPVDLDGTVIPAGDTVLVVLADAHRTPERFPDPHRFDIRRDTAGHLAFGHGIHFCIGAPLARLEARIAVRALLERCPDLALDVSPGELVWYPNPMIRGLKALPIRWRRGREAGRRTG
Test: UV-vis difference spectral titration ([…]-420 nm)
Type: binding

Row | Structure (SMILES) | Kd [µM]
1 | CC[C@H]1OC(=O)[C@H](C)C(=O)[C@H](C)[C@@H](O[C@@H]2O[C@H](C)C[C@H](N(C)C)[C@H]2O)[C@@H](C)C[C@@H](C)C(=O)/C=C/[C@H]1C [compound 5, narbomycin] | 374
2 | CC[C@H]1OC(=O)[C@H](C)[C@@H](O[C@@H]2O[C@H](C)C[C@H](N(C)C)[C@H]2O)[C@@H](C)C[C@@H](C)C(=O)/C=C/[C@H]1C [compound 4, YC-17] | 178
